Molecules are shown by their SMILES.

For the test, the system named is LPS induced TNF release. As to the kind of experiment: Lipopolysaccharide-Activated THP1 Cell TNF Production Assay. The conditions noted are these: Homo sapiens, THP-1. Format: cell-based. As to the method: Lipopolysaccharide-Activated THP1 Cell TNF Production Assay
THP1 cells are resuspended in fresh THP1 media (RPMI 1640, 10% heat-inactivated FBS, 1×PGS, 1×NEAA, plus 30 μM βME) at a concentration of 1E6/mL. One hundred microliters of cells per well are plated in a polystyrene 96-well tissue culture. One microgram per mL of bacterial LPS is prepared in THP1 media and is transferred to the wells. Test compounds are dissolved in 100% DMSO and are serially diluted 3 fold in a polypropylene 96-well microtiter plate (drug plate). HI control and LO control wells contain only DMSO. One microliter of test compound from the drug plate followed by 10 μL of LPS are transferred to the cell plate. The treated cells are induced to synthesize and secrete TNF-α at 37° C. for 3 h. Forty microliters of conditioned media are transferred to a 96-well polypropylene plate containing 110 μL of ECL buffer (50 mM Tris-HCl pH 8.0, 100 mM NaCl, 0.05% Tween 20, 0.05% NaN3 and 1%FBS) supplemented with 0.44 nM MAB610 monoclonal Ab (R&D Systems), 0.34 nM ruthenylated AF210NA polyclonal Ab (R&D Systems) and 44 μg/mL sheep anti-mouse M280 Dynabeads (Dynal). After a 2 h incubation at room temperature with shaking, the reaction is read on the ECL M8 Instrument (IGEN Inc.). A low voltage is applied to the ruthenylated TNF-α immune complexes, which in the presence of TPA (the active component in Origlo), results in a cyclical redox reaction generating light at […]. The amount of secreted TNF-α in the presence of compound compared with that in the presence of DMSO vehicle alone (HI control) is calculated using the formula: % control (POC)=(cpd−average LO)/(average HI−average LO)*100. Data (consisting of POC and inhibitor concentration in μM) is fitted to a 4-parameter equation (y=A+((B−A)/(1+((x/C)^D))), where A is the minimum y (POC) value, B is the maximum y (POC), C is the x (cpd concentration) at the point of inflection and D is the slope factor) using a Levenburg-Marquardt non-linear regression algorithm.
In general, IC50 refers to the point on the concentration scale where inhibition reaches its midpoint. A higher IC50 goes with lower potency. In the case of `C[C@H](Cc1cccc(CN)c1)Nc1nccc(N2CCCn3c2nc(-c2ccccc2)cc3=O)n1` [9-{2-[2-(3-aminomethyl-phenyl)-1(R)-methyl-ethylamino]-pyrimidin-4-yl}-2-phenyl-6,7,8,9-tetrahydro-pyrimido[1,2-a]pyrimidin-4-one], the concentration for half-maximal inhibition (IC50) is ≤ 20 µM.

Take `Cc1ccc(-c2cc(=O)n3c(n2)N(c2ccnc(N[C@@H](C)c4ccccc4)n2)CCC3)cc1C` [Example 1, 2-(3,4-Dimethyl-phenyl)-9-[2-(1(S)-phenyl-ethylamino) -pyrimidin-4-yl]-6,7,8,9-tetrahydro-pyrimido[1,2-a]pyrimidin-4-one]: the 50% inhibitory concentration (IC50) was ≤ 20 µM.

With `C[C@H](Nc1nccc(N2CCCn3c2nc(-c2ccccc2F)cc3=O)n1)c1ccccc1` [Example 2, 2-(2-fluorophenyl)-9-[2-(1(S)-phenyl-ethylamino)-pyrimidin-4-yl]-6,7,8,9-tetrahydro-pyrimido[1,2-a]pyrimidin-4-one], the half-maximal inhibitory concentration (IC50) is ≤ 20 µM.

With `C[C@H](Nc1nccc(N2CCCn3c2nc(-c2ccccc2C(F)(F)F)cc3=O)n1)c1ccccc1` [Example 3, 2-(2-trifluoromethylphenyl)-9-[2-(1(S)-phenyl-ethylamino) -pyrimidin-4-yl]-6,7,8,9-tetrahydro-pyrimido[1,2-a]pyrimidin-4-one], the half-inhibitory concentration (IC50) was ≤ 20 µM.

Take `C[C@H](Nc1nccc(N2CCCn3c2nc(-c2ccc(F)cc2)cc3=O)n1)c1ccccc1` [Example 4, 2-(4-fluorophenyl)-9-[2-(1(S)-phenyl-ethylamino)-pyrimidin-4-yl]-6,7,8,9-tetrahydro-pyrimido[1,2-a]pyrimidin-4-one]: the 50% inhibitory concentration (IC50) is ≤ 20 µM.

On to `COc1ccc(-c2cc(=O)n3c(n2)N(c2ccnc(N[C@@H](C)c4ccccc4)n2)CCC3)cc1` [Example 5, 2-(4-methoxyphenyl)-9-[2-(1(S)-phenyl-ethylamino)-pyrimidin-4-yl]-6,7,8,9-tetrahydro-pyrimido[1,2-a]pyrimidin-4-one], for which the concentration for half-maximal inhibition (IC50) was ≤ 20 µM.

As for `C[C@H](Nc1nccc(N2CCCn3c2nc(-c2cccc([N+](=O)[O-])c2)cc3=O)n1)c1ccccc1` [Example 6, 2-(3-nitrophenyl)-9-[2-(1(S)-phenyl-ethylamino)-pyrimidin-4-yl]-6,7,8,9-tetrahydro-pyrimido[1,2-a]pyrimidin-4-one], the half-maximal inhibitory concentration (IC50) is ≤ 20 µM.

On to `C[C@H](Nc1nccc(N2CCCn3c2nc(-c2cccc(N)c2)cc3=O)n1)c1ccccc1` [Example 7, 2-(3-aminophenyl)-9-[2-(1(S)-phenyl-ethylamino)-pyrimidin-4-yl]-6,7,8,9-tetrahydro-pyrimido[1,2-a]pyrimidin-4-one], for which the IC50 was ≤ 20 µM.

As for `C[C@H](Nc1nccc(N2CCCn3c2nc(C(C)(C)C)cc3=O)n1)c1ccccc1` [Example 11, 2-(tert-butyl)-9-[2-(1(S)-phenyl-ethylamino)-pyrimidin-4-yl]-6,7,8,9-tetrahydro-pyrimido[1,2-a]pyrimidin-4-one], the IC50 was ≤ 20 µM.

As to `CCc1cccc(-c2cc(=O)n3c(n2)N(c2ccnc(N[C@@H](C)c4ccccc4)n2)CCC3)c1` [Example 12, 2-(3-ethylphenyl)-9-[2-(1(S)-phenyl-ethylamino)-pyrimidin-4-yl]-6,7,8,9-tetrahydro-pyrimido[1,2-a]pyrimidin-4-one], the concentration for half-maximal inhibition (IC50) was ≤ 20 µM.

With `C[C@H](Nc1nccc(N2CCCn3c2nc(-c2ccc(Cl)c(Cl)c2)cc3=O)n1)c1ccccc1` [Example 13, 2-(3,4-dichlorophenyl)-9-[2-(1(S)-phenyl-ethylamino) -pyrimidin-4-yl]-6,7,8,9-tetrahydro-pyrimido[1,2-a]pyrimidin-4-one], the IC50 is ≤ 20 µM.

`CC(Cc1cccc(CN)c1)Nc1nccc(N2CCCn3c2nc(-c2ccccc2)c(N)c3=O)n1` (centres unmarked) [Example 14, 3-Amino-9-{2-[2-(3-aminomethyl-phenyl)-1-methyl-ethylamino]-pyrimidin-4-yl}-2-phenyl-6,7,8,9-tetrahydro-pyrimido[1,2-a]pyrimidin-4-one]: the half-maximal inhibitory concentration (IC50) was ≤ 20 µM.

In the case of `O=c1c([N+](=O)[O-])c(-c2ccccc2)nc2n1CCCN2c1ccnc(NCCc2ccccc2)n1` [Example 15, 3-Nitro-9-(2-phenethylamino-pyrimidin-4-yl)-2-phenyl-6,7,8,9-tetrahydro-pyrimido[1,2-a]pyrimidin-4-one], the IC50 is ≤ 20 µM.

With `Nc1c(-c2ccccc2)nc2n(c1=O)CCCN2c1ccnc(NCCc2ccccc2)n1` [Example 18, 3-Amino-9-(2-phenethylamino-pyrimidin-4-yl) -2-phenyl-6,7,8,9-tetrahydro-pyrimido[1,2-a]pyrimidin-4-one], the 50% inhibitory concentration (IC50) is ≤ 20 µM.

Regarding `CC(C)NCc1cccc(CC(C)Nc2nccc(N3CCCn4c3nc(-c3ccccc3)cc4=O)n2)c1` (centres unmarked) [Example 19, 9-(2-{2-[3-(Isopropylamino-methyl)-phenyl]-1-methyl-ethylamino}-pyrimidin-4-yl) -2-phenyl-6,7,8,9-tetrahydro-pyrimido[1,2-a]pyrimidin-4-one], the IC50 was ≤ 20 µM.

As for `O=c1cc(-c2ccccc2)nc2n1CCCN2c1ccnc(NCc2ccccc2)n1` [Example 29, 9-(2-{2-(benzyl)amino}-pyrimidin-4-yl)-2-phenyl-6,7,8,9-tetrahydro-pyrimido[1,2-a]pyrimidin-4-one], the IC50 was ≤ 20 µM.

On to `Nc1nccc(N2CCCn3c2nc(-c2ccccc2)cc3=O)n1` [Example 38, 9-(2-{2-amino}-pyrimidin-4-yl)-2-phenyl-6,7,8,9-tetrahydro-pyrimido[1,2-a]pyrimidin-4-one], for which the half-maximal inhibitory concentration (IC50) was ≤ 20 µM.

In the case of `CC(Cc1cccc(CN)c1)Nc1nccc(N2CCCn3c2nc(-c2ccccc2)cc3=O)n1` (centres unmarked) [Example 44, 9-{2-[2-(3-Aminomethyl-phenyl)-1-methyl-ethylamino]-pyrimidin-4-yl}-2-phenyl-6,7,8,9-tetrahydro-pyrimido[1,2-a]pyrimidin-4-one], the IC50 was ≤ 20 µM.

Turning to `CC(Cc1cccc(CO)c1)Nc1nccc(N2CCCn3c2nc(-c2ccccc2)cc3=O)n1` (centres unmarked) [Example 47, 9-{2-[2-(3-Hydroxymethyl-phenyl)-1-methyl-ethylamino]-pyrimidin-4-yl}-2-phenyl-6,7,8,9-tetrahydro-pyrimido[1,2-a]pyrimidin-4-one], the 50% inhibitory concentration (IC50) was ≤ 20 µM.

Regarding `C[C@@H](Cc1cccc(CN)c1)Nc1nccc(N2CCCn3c2nc(-c2ccccc2)cc3=O)n1` [Example 49, 9-{2-[2-(3-Aminomethyl-phenyl)-1(S)-methyl-ethylamino]-pyrimidin-4-yl}-2-phenyl-6,7,8,9-tetrahydro-pyrimido[1,2-a]pyrimidin-4-one], the half-inhibitory concentration (IC50) was ≤ 20 µM.

Consider `CC(C)NCCC1CN(c2ccnc(NCCc3ccccc3)n2)c2nc(-c3ccccc3)cc(=O)n2C1` (centres unmarked) [Example 50, 7-(2-Isopropylamino-ethyl)-9-(2-phenethylamino-pyrimidin-4-yl) -2-phenyl-6,7,8,9-tetrahydro-pyrimido[1,2-a]pyrimidin-4-one], for which the concentration for half-maximal inhibition (IC50) is ≤ 20 µM.

Take `NCCC1CN(c2ccnc(NCCc3ccccc3)n2)c2nc(-c3ccccc3)cc(=O)n2C1` (centres unmarked) [Example 51, 7-(2-Amino-ethyl)-9-(2-phenethylamino-pyrimidin-4-yl)-2-phenyl-6,7,8,9-tetrahydro-pyrimido[1,2-a]pyrimidin-4-one]: the IC50 was ≤ 20 µM.

As for `O=C(NCCC1CN(c2ccnc(NCCc3ccccc3)n2)c2nc(-c3ccccc3)cc(=O)n2C1)OCc1ccccc1` (centres unmarked) [Example 52, {2-[6-Oxo-1-(2-phenethylamino-pyrimidin-4-yl)-8-phenyl-1,3,4,6-tetrahydro-2H-pyrimido[1,2-a]pyrimidin-3-yl]-ethyl}-carbamic acid benzyl ester], the IC50 was ≤ 20 µM.

These data come from patent US7504403B2, “Substituted heterocyclic compounds and methods of use” (Amgen Inc., priority 2004, dated 2009).
